Converted amounts (≈) assume the structure as drawn. “And” between values parts separate entries of the source, which are not always exact repeats. Equal values may be shown once. Read-outs that look alike come from different tables or passages of the source.
Experiments:
[1] = system: fondaparinux; experiment: FXa amidolytic assay (Example 10), fondaparinux; conditions: read-out: Fondap FXa EC50
Procedure: (§1) Two μl of test agent are added (range between 0.01 and 23 ug/ml) and incubated for 5 minutes at 23° C. Bovine Factor Xa was added to a final concentration of 0.636 nkat/mL and incubated for a further 10 minutes at 23° C.

[2] = system: enoxaparin; experiment: FXa amidolytic assay (Example 10), enoxaparin; conditions: read-out: Enox FXa EC50
Procedure: as §1

[3] = system: Unfractionated heparin; experiment: aPTT clotting assay, UFH 0.4 U/mL in plasma (Example 10); assay type: biochemical
Procedure: aPTT clotting Assay: Unfractionated heparin was mixed with plasma at a final concentration of 0.4 U/mL (or concentration which increases aPTT time to between 120 and 300 seconds). […] The ACL Elite Hemostasis analyzer (Beckman Coulter™) was used to add aPTT reagent (HemosIL SynthASil) to supplemented plasma. Clotting was initiated by addition of CaCl2 and time to clot was recorded.

[4] = system: UFH; experiment: FXa amidolytic assay (Example 10), UFH; conditions: read-out: Heparin FXa uM EC50
Procedure: as §1

[5] = system: tinzaparin; experiment: FXa amidolytic assay (Example 10), tinzaparin; conditions: read-out: Tinzap FXa EC50
Procedure: as §1

[6] = system: isolated human erythrocytes; experiment: cells; assay type: cell-based; conditions: Homo sapiens, Erythrocyte, 1 h, human RBC, 1 hour at 37° C.; read-out: Hemolysis EC50
Procedure: Hemolysis assay: Cytotoxicity was also evaluated in a hemolysis assay using isolated human erythrocytes. Pooled whole human blood was centrifuged to separate the red blood cells (RBC). The isolated RBCs were rinsed and diluted in Tris-buffered saline (TBS buffer, pH 7.4) to obtain a 0.22% RBC stock suspension. Serial two-fold dilutions of test agent were assayed over a concentration range of 1000 to 0.48 μg/ml with shaking for 1 hour at 37° C. At the conclusion of the incubation time, samples were centrifuged and 30 μl of the supernatant was added to 100 μl H2O. OD405 measurements were read for hemoglobin concentration. The bee venom peptide melittin was used as a positive control. EC50 values were determined using a four parameter logistic equation: Y=Bottom+(Top-Bottom)/(1+10̂((LogEC50-X)*HillSlope)).

[7] = fondaparinux 0.02 μg/mL, human antithrombin, bovine Factor Xa
[8] = enoxaparin 0.1 ug/ml, human antithrombin, bovine Factor Xa
[9] = unfractionated heparin 0.4 U/mL in plasma, aPTT clotting
[10] = UFH 0.03 units/mL, human antithrombin, bovine Factor Xa
[11] = tinzaparin 0.1 ug/ml, human antithrombin, bovine Factor Xa

| SMILES | EC50 [1, 7] | EC50 [2, 8] | EC50 [3, 9] | EC50 [4, 10] | EC50 [5, 11] | EC50 [6] | EC50 [1] | EC50 [2] | EC50 [3] | EC50 [4] | EC50 [5] |
| --- | --- | --- | --- | --- | --- | --- | --- | --- | --- | --- | --- |
| COc1ccc(NC(=O)[C@@H](CCCNC(=N)N)NC(=O)c2cc(NC(=O)[C@@H](CCCNC(=N)N)NC(=O)c3cc(NC(=O)[C@@H](CCCNC(N)=O)NC(=O)c4cc(NC(=O)[C@H](N)CCCNC(=N)N)ccc4OC)ccc3OC)ccc2OC)cc1C(N)=O [Compound 219] | 731 nM | 95 nM | 1170 nM | 0.153 µM | 187 nM |  |  |  |  |  |  |
| COc1ccc(NC(=O)[C@H](CCCCCN)NC(=O)c2cc(NC(=O)[C@H](CCCCCN)NC(=O)c3cc(NC(=O)[C@H](CCCCCN)NC(=O)c4cc(NC(=O)[C@@H](N)CCCCCN)ccc4OC)ccc3OC)ccc2OC)cc1C(N)=O [Compound 236] | > 12600 nM | 99 nM | 1930 nM | 0.364 µM | 396 nM |  |  |  |  |  |  |
| COc1ccc(C(=O)N[C@@H](CCCCN)C(=O)Nc2ccc(OC)c(C(=O)N[C@@H](CCCCN)C(=O)Nc3ccc(OC)c(C(=O)N[C@@H](CCCCN)C(=O)Nc4ccc(OC)c(C(N)=O)c4)c3)c2)cc1NC(=O)[C@@H](N)CCCCN [Compound 237] | 3620 nM and 3730 nM | 177 nM and 341 nM | 1140 nM | 0.199 µM | 109 nM and 121 nM |  |  |  |  |  |  |
| COc1ccc(NC(=O)[C@H](CCCCN)NC(=O)c2cc(NC(=O)[C@H](CCCCN)NC(=O)c3cc(NC(=O)[C@H](CCCCN)NC(=O)c4cc(NC(=O)[C@@H](N)Cc5c[nH]c6ccccc56)ccc4OC)ccc3OC)ccc2OCC(=O)O)cc1C(=O)N[C@@H](Cc1c[nH]c2ccccc12)C(N)=O [Compound 334] | 224 nM | 249 nM | > 10000 nM |  | 281 nM | ~15 µg/mL (≈ 10.6 µM) |  |  |  |  |  |
| CNCNC(=O)c1cccc(C(=O)N[C@H]2CC[C@H](NC(=O)c3cc(C(=O)N[C@H]4CC[C@H](NC(=O)c5cccc(C(=O)NCCN)c5)CC4)c(OC)cc3OC)CC2)c1 [Compound 366] | > 10000 nM | > 5000 nM | > 10000 nM | 15.5 µM | > 5000 nM |  |  |  |  |  |  |
| COc1cc(OC)c(C(=O)N[C@H]2CC[C@@H](NC(=O)c3cc(C(=O)NCCN)c(OCCCCCN)cc3OCCCCCN)CC2)cc1C(=O)N[C@H]1CC[C@@H](NC(=O)c2cc(C(=O)NCCN)c(OCCCCCN)cc2OCCCCCN)CC1 [Compound 367] | 514 nM | 42 nM | 1270 nM | 0.085 µM | 106 nM |  |  |  |  |  |  |
| NCCCC[C@H](NC(=O)c1cccc(NC(=O)[C@H](CCCCN)NC(=O)c2cccc(NC(=O)[C@H](CCCCN)NC(=O)c3cccc(NC(=O)[C@@H](N)CCCCN)c3)c2)c1)C(=O)Nc1cccc(C(N)=O)c1 [Compound 368] | > 10000 nM | 11000 nM | 9250 nM | 3.69 µM | 3390 nM |  |  |  |  |  |  |
| COc1ccc(NC(=O)[C@@H](CCCNC(=N)N)NC(=O)c2cc(NC(=O)[C@@H](CCCNC(N)=O)NC(=O)c3cc(NC(=O)[C@@H](CCCNC(N)=O)NC(=O)c4cc(NC(=O)[C@H](N)CCCNC(N)=O)ccc4OC)ccc3OC)ccc2OC)cc1C(N)=O [Compound 370] | > 10000 nM | 463 nM | 1460 nM | 12.5 µM | 259 nM |  |  |  |  |  |  |
| COc1ccc(NC(=O)[C@@H](CCCNC(N)=O)NC(=O)c2cc(NC(=O)[C@@H](CCCNC(=N)N)NC(=O)c3cc(NC(=O)[C@@H](CCCNC(N)=O)NC(=O)c4cc(NC(=O)[C@H](N)CCCNC(N)=O)ccc4OC)ccc3OC)ccc2OC)cc1C(N)=O [Compound 371] | > 10000 nM | 252 nM | 3260 nM | > 10 µM | 197 nM |  |  |  |  |  |  |
| COc1ccc(NC(=O)[C@@H](CCCNC(N)=O)NC(=O)c2cc(NC(=O)[C@@H](CCCNC(N)=O)NC(=O)c3cc(NC(=O)[C@@H](CCCNC(=N)N)NC(=O)c4cc(NC(=O)[C@H](N)CCCNC(N)=O)ccc4OC)ccc3OC)ccc2OC)cc1C(N)=O [Compound 372] | 544 nM | 225 nM | 2970 nM | > 10 µM | 150 nM |  |  |  |  |  |  |
| COc1ccc(NC(=O)[C@@H](CCCNC(N)=O)NC(=O)c2cc(NC(=O)[C@@H](CCCNC(N)=O)NC(=O)c3cc(NC(=O)[C@@H](CCCNC(N)=O)NC(=O)c4cc(NC(=O)[C@H](N)CCCNC(=N)N)ccc4OC)ccc3OC)ccc2OC)cc1C(N)=O [Compound 373] | > 10000 nM | 123 nM | 2360 nM | > 10 µM | 123 nM |  |  |  |  |  |  |
| COc1ccc(NC(=O)[C@@H](CCCNC(=N)N)NC(=O)c2cc(NC(=O)[C@@H](CCCNC(=N)N)NC(=O)c3cc(NC(=O)[C@@H](CCCNC(N)=O)NC(=O)c4cc(NC(=O)[C@H](N)CCCNC(N)=O)ccc4OC)ccc3OC)ccc2OC)cc1C(N)=O [Compound 374] | 1820 nM | 157 nM | 2420 nM | 0.677 µM | 114 nM |  |  |  |  |  |  |
| COc1ccc(NC(=O)[C@@H](CCCNC(N)=O)NC(=O)c2cc(NC(=O)[C@@H](CCCNC(N)=O)NC(=O)c3cc(NC(=O)[C@@H](CCCNC(=N)N)NC(=O)c4cc(NC(=O)[C@H](N)CCCNC(=N)N)ccc4OC)ccc3OC)ccc2OC)cc1C(N)=O [Compound 375] | 1260 nM | 113 nM | 2690 nM | 0.681 µM | 76 nM |  |  |  |  |  |  |
| COc1ccc(NC(=O)[C@@H](CCCNC(=N)N)NC(=O)c2cc(NC(=O)[C@@H](CCCNC(N)=O)NC(=O)c3cc(NC(=O)[C@@H](CCCNC(N)=O)NC(=O)c4cc(NC(=O)[C@H](N)CCCNC(=N)N)ccc4OC)ccc3OC)ccc2OC)cc1C(N)=O [Compound 376] | 1670 nM | 191 nM | 1890 nM | 0.416 µM | 114 nM |  |  |  |  |  |  |
| COc1ccc(NC(=O)[C@@H](CCCNC(N)=O)NC(=O)c2cc(NC(=O)[C@@H](CCCNC(=N)N)NC(=O)c3cc(NC(=O)[C@@H](CCCNC(=N)N)NC(=O)c4cc(NC(=O)[C@H](N)CCCNC(N)=O)ccc4OC)ccc3OC)ccc2OC)cc1C(N)=O [Compound 377] |  |  |  |  |  |  | 1440 nM | 149 nM | 2090 nM | 0.66 µM | 92 nM |
| COc1ccc(NC(=O)[C@@H](CCCNC(=N)N)NC(=O)c2cc(NC(=O)[C@@H](CCCNC(N)=O)NC(=O)c3cc(NC(=O)[C@@H](CCCNC(=N)N)NC(=O)c4cc(NC(=O)[C@H](N)CCCNC(N)=O)ccc4OC)ccc3OC)ccc2OC)cc1C(N)=O [Compound 378] |  |  |  |  |  |  | 2330 nM | 110 nM | 2010 nM | 0.49 µM | 73 nM |
| COc1cc(OC)c(C(=O)N[C@H]2CC[C@@H](NC(=O)c3cc(C(=O)N[C@H]4CC[C@@H](N=C(N(C)C)N(C)C)CC4)c(OC)cc3OC)CC2)cc1C(=O)NCCN [Compound 382] | > 10000 nM | > 5000 nM | > 10000 nM | > 20 µM | > 5000 nM |  |  |  |  |  |  |
| COc1cc(OC)c(C(=O)N[C@H]2CC[C@@H](NC(=O)c3cc(C(=O)N[C@H]4CC[C@@H](N)CC4)c(OC)cc3OC)CC2)cc1C(=O)NCCN [Compound 383] | > 10000 nM | > 5000 nM | > 10000 nM | > 20 µM | > 5000 nM |  |  |  |  |  |  |
| COc1cc(OC)c(C(=O)N2CCC(NC(=O)c3cc(C(=O)NC4CCN(C(=O)c5cc(C(=O)NCCN)c(OC)cc5OC)CC4)c(OC)cc3OC)CC2)cc1C(=O)NCCN [Compound 384] | > 10000 nM | > 5000 nM | > 10000 nM | > 20 µM | > 5000 nM |  |  |  |  |  |  |
| COc1cc(OC)c(C(=O)NC2CCN(C(=O)c3cc(C(=O)NCCN)c(OC)cc3OC)CC2)cc1C(=O)O [Compound 385] | > 10000 nM | > 5000 nM | > 10000 nM | > 20 µM | > 5000 nM |  |  |  |  |  |  |
| COc1cc(OC)c(C(=O)NCCNC(=O)c2cc(C(=O)NCCNC(=O)c3cc(C(=O)NCCN)c(OC)cc3OC)c(OC)cc2OC)cc1C(=O)NCCN [Compound 386] | > 10000 nM | > 5000 nM |  | 19.4 µM | 7240 nM |  |  |  |  |  |  |
| COc1cc(OC)c(C(=O)NCCNC(=O)c2cc(C(=O)NCCN)c(OC)cc2OC)cc1C(=O)O [Compound 387] | > 10000 nM | > 5000 nM | > 10000 nM | > 20 µM | > 5000 nM |  |  |  |  |  |  |
| COc1cc(OC)c(C(=O)N[C@H]2CC[C@@H](NC(=O)c3cc(C(=O)N[C@H]4CC[C@@H](N=C(N(C)C)N(C)C)CC4)c(OC)cc3OC)CC2)cc1C(N)=O [Compound 388] | > 10000 nM | > 5000 nM | > 10000 nM | > 20 µM | > 5000 nM |  |  |  |  |  |  |
| COc1cc(OC)c(C(=O)N[C@H]2CC[C@H](NC(=O)c3cc(C(=O)N[C@H]4CC[C@H](N=C(N(C)C)N(C)C)CC4)c(OC)cc3OC)CC2)cc1C(N)=O [Compound 389] | > 10000 nM | 5610 nM | > 10000 nM | > 10 µM | 6730 nM |  |  |  |  |  |  |
